Structures are written as SMILES. A value given as a limit tells only on which side of the number the result lay.

The test addresses T1, human CTPS1 (Homo sapiens, UniProt P17812).
T1 construct: purchased Proteros biostructures GmbH
T1 sequence (P17812 1-591): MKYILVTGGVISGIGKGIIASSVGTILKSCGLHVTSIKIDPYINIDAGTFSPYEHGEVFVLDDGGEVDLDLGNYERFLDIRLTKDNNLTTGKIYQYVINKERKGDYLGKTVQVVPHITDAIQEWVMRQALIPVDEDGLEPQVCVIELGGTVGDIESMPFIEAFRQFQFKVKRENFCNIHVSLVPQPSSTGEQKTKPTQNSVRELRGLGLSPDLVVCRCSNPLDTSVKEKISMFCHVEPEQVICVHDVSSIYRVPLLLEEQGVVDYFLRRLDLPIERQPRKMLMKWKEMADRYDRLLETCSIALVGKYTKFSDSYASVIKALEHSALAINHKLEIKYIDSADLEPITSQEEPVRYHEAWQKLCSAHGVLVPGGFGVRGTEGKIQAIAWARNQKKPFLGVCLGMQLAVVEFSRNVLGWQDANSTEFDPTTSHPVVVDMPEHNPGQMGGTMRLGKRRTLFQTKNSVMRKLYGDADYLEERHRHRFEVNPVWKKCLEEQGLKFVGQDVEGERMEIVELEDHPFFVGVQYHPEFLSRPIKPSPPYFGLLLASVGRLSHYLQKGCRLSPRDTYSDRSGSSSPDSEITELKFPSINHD
Put plainly: Human CTPS1 enzyme inhibition (ADP-Glo Max assay). The class given is biochemical. Particulars: Table 18, additional potency data, 25° C., read-out: CTPS1 (Human CTPS1 Enzyme Inhibition data grouped by potency range). In a few lines:
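ADP-Glo Max luminescence detection of ATP-to-ADP conversion by the enzyme, in 50 mM Tris, 10 mM MgCl2, 0.01% Tween-20, pH 8.0, with 2 mM L-cysteine added fresh. Enzyme preincubated with compound 10 minutes at 25° C. Percentage inhibition calculated per compound concentration.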
For the molecule `CCS(=O)(=O)Nc1nc(C(C)(C)C(=O)Nc2ccc(-c3cccnc3)cc2)cs1` [T386, 2-(2-(ethylsulfonamido)thiazol-4-yl)-2-methyl-N-(4-(pyridin-3-yl)phenyl)propanamide], the IC50 lay within 100 to 1000 nM.
To `CCS(=O)(=O)Nc1nc(C(C)(C)C(=O)Nc2ccc(-c3cncc(C(F)(F)F)n3)cc2)cs1` [T387, 2-(2-(ethylsulfonamido)thiazol-4-yl)-2-methyl-N-(4-(6-(trifluoromethyl)pyrazin-2-yl)phenyl)propanamide] belongs less than 100 nM; to `CCS(=O)(=O)Nc1nc(C(C)(C)C(=O)Nc2ccc(-c3cncc(OC(C)C)n3)cc2)cs1` [T388, 2-(2-(ethylsulfonamido)thiazol-4-yl)-N-(4-(6-isopropoxypyrazin-2-yl)phenyl)-2-methylpropanamide], less than 100 nM; to `CC(C)(C(=O)Nc1ccc(-c2cncc(C(F)(F)F)c2)cn1)c1csc(NS(C)(=O)=O)n1` [T389, 2-methyl-2-(2-(methylsulfonamido)thiazol-4-yl)-N-(5′-(trifluoromethyl)-[3,3′-bipyridin]-6-yl)propanamide], 100 to 1000 nM.
The value for `CCOc1cncc(-c2ccc(NC(=O)C(C)(C)c3csc(NS(C)(=O)=O)n3)nc2)n1` [T390, N-(5-(6-ethoxypyrazin-2-yl)pyridin-2-yl)-2-methyl-2-(2-(methylsulfonamido)thiazol-4-yl)propanamide] was less than 100 nM.
To `CC(C)(C(=O)Nc1ccc(-c2cncc(C(F)(F)F)n2)cc1F)c1csc(NS(C)(=O)=O)n1` [T391, N-(2-fluoro-4-(6-(trifluoromethyl)pyrazin-2-yl)phenyl)-2-methyl-2-(2-(methylsulfonamido)thiazol-4-yl)propanamide] belongs less than 100 nM; to `CC(C)Oc1cncc(-c2ccc(NC(=O)C(C)(C)c3csc(NS(C)(=O)=O)n3)c(F)c2)n1` [T392, N-(2-fluoro-4-(6-isopropoxypyrazin-2-yl)phenyl)-2-methyl-2-(2-(methylsulfonamido)thiazol-4-yl)propanamide], less than 100 nM.
In the case of `CC(C)(C(=O)Nc1ccc(-c2cncc(Cl)c2)cc1)c1csc(NS(C)(=O)=O)n1` [T393, N-(4-(5-chloropyridin-3-yl)phenyl)-2-methyl-2-(2-(methylsulfonamido)thiazol-4-yl)propanamide], the IC50 lay within 100 to 1000 nM.
To `CC(C)(C(=O)Nc1ccc(-c2cncc(C(F)(F)F)n2)cc1)c1csc(NS(C)(=O)=O)n1` [T394, 2-methyl-2-(2-(methylsulfonamido)thiazol-4-yl)-N-(4-(6-(trifluoromethyl)pyrazin-2-yl)phenyl)propanamide] belongs less than 100 nM; to `CC(C)Oc1cncc(-c2ccc(NC(=O)C(C)(C)c3csc(NS(C)(=O)=O)n3)cc2)n1` [T395, N-(4-(6-isopropoxypyrazin-2-yl)phenyl)-2-methyl-2-(2-(methylsulfonamido)thiazol-4-yl)propanamide], less than 100 nM.
The value for `CC(C)(C(=O)Nc1ccc(-c2cncc(C(F)(F)F)n2)cn1)c1csc(NS(=O)(=O)CC2CC2)n1` [T396, 2-(2-((cyclopropylmethyl)sulfonamido)thiazol-4-yl)-2-methyl-N-(5-(6-(trifluoromethyl)pyrazin-2-yl)pyridin-2-yl)propanamide] was 100 to 1000 nM; that for `O=C(Nc1ccc(-c2cncc(C(F)(F)F)n2)cc1)C1(c2csc(NS(=O)(=O)C3CC3)n2)CC1` [T397, 1-(2-(cyclopropanesulfonamido)thiazol-4-yl)-N-(4-(6-(trifluoromethyl)pyrazin-2-yl)phenyl)cyclopropane-1-carboxamide] was 100 to 1000 nM; that for `CCOc1cncc(-c2ccc(NC(=O)C3(c4csc(NS(=O)(=O)C5CC5)n4)CC3)cc2)n1` [T398, 1-(2-(cyclopropanesulfonamido)thiazol-4-yl)-N-(4-(6-ethoxypyrazin-2-yl)phenyl)cyclopropane-1-carboxamide] was less than 100 nM.
The value for `COCCC(C(=O)Nc1ccc(-c2cncc(C(F)(F)F)n2)cc1F)c1csc(NS(=O)(=O)C2CC2)n1` (stereo not drawn) [T399, 2-(2-(cyclopropanesulfonamido)thiazol-4-yl)-N-(2-fluoro-4-(6-(trifluoromethyl)pyrazin-2-yl)phenyl)-4-methoxybutanamide] was less than 100 nM; that for `COCCC(C(=O)Nc1ccc(-c2cncc(OC(C)C)n2)cc1F)c1csc(NS(=O)(=O)C2CC2)n1` (stereo not drawn) [T400, 2-(2-(cyclopropanesulfonamido)thiazol-4-yl)-N-(2-fluoro-4-(6-isopropoxypyrazin-2-yl)phenyl)-4-methoxybutanamide] was less than 100 nM; that for `CCC(C(=O)Nc1ccc(-c2cncc(C(C)C)n2)cn1)c1csc(NS(=O)(=O)C2CC2)n1` (stereo not drawn) [T401, 2-(2-(cyclopropanesulfonamido)thiazol-4-yl)-N-(5-(6-isopropylpyrazin-2-yl)pyridin-2-yl)butanamide] was 100 to 1000 nM.
In the case of `CCC(C(=O)Nc1ccc(-c2cncc(C(C)(C)OC)n2)cn1)c1csc(NS(=O)(=O)C2CC2)n1` (stereo not drawn) [T402, 2-(2-(cyclopropanesulfonamido)thiazol-4-yl)-N-(5-(6-(2-methoxypropan-2-yl)pyrazin-2-yl)pyridin-2-yl)butanamide], the IC50 is 1000 to 10000 nM.
`CCC(C(=O)Nc1ccc(-c2cncc(C(C)(C)OC)n2)cc1F)c1csc(NS(=O)(=O)C2CC2)n1` (stereo not drawn) [T403, 2-(2-(cyclopropanesulfonamido)thiazol-4-yl)-N-(2-fluoro-4-(6-(2-methoxypropan-2-yl)pyrazin-2-yl)phenyl)butanamide]: the IC50 lay in the range of 100 to 1000 nM.
To `CCC(C(=O)Nc1ccc(-c2cncc(C#N)n2)cc1F)c1csc(NS(=O)(=O)C2CC2)n1` (stereo not drawn) [T404, N-(4-(6-cyanopyrazin-2-yl)-2-fluorophenyl)-2-(2-(cyclopropanesulfonamido)thiazol-4-yl)butanamide] belongs 100 to 1000 nM.
The value for `CCc1cncc(-c2ccc(NC(=O)C(CC)c3csc(NS(=O)(=O)C4CC4)n3)c(F)c2)n1` (stereo not drawn) [T405, 2-(2-(cyclopropanesulfonamido)thiazol-4-yl)-N-(4-(6-ethylpyrazin-2-yl)-2-fluorophenyl)butanamide] was less than 100 nM; that for `CCC(C(=O)Nc1ccc(-c2cncc(C(C)(C)OC)n2)cc1)c1csc(NS(=O)(=O)C2CC2)n1` (stereo not drawn) [T406, 2-(2-(cyclopropanesulfonamido)thiazol-4-yl)-N-(4-(6-(2-methoxypropan-2-yl)pyrazin-2-yl)phenyl)butanamide] was 100 to 1000 nM.
For `CCOc1cncc(-c2ccc(NC(=O)C(NC(=O)OC(C)(C)C)c3csc(NS(=O)(=O)C4CC4)n3)cc2)n1` (stereo not drawn) [T407, tert-butyl (1-(2-(cyclopropanesulfonamido)thiazol-4-yl)-2-((4-(6-ethoxypyrazin-2-yl)phenyl)amino)-2-oxoethyl)carbamate], the IC50 is less than 100 nM.
As for `COC(C(=O)Nc1ccc(-c2cncc(C(F)(F)F)n2)cc1F)c1csc(NS(=O)(=O)C2CC2)n1` (stereo not drawn) [T408, 2-(2-(cyclopropanesulfonamido)thiazol-4-yl)-N-(2-fluoro-4-(6-(trifluoromethyl)pyrazin-2-yl)phenyl)-2-methoxyacetamide], the IC50 is less than 100 nM.
To `CCOc1cncc(-c2ccc(NC(=O)C(OC)c3csc(NS(=O)(=O)C4CC4)n3)c(F)c2)n1` (stereo not drawn) [T409, 2-(2-(cyclopropanesulfonamido)thiazol-4-yl)-N-(4-(6-ethoxypyrazin-2-yl)-2-fluorophenyl)-2-methoxyacetamide] belongs less than 100 nM.

The record behind these values is patent US11655246B2, “Aminothiazole compounds as inhibitors of CTPS1” (STEP PHARMA S.A.S., priority 2017, dated 2023).
